The record followed here is ChEMBL document CHEMBL3853292, “Aspewentins D-H, 20-Nor-isopimarane Derivatives from the Deep Sea Sediment-Derived Fungus Aspergillus wentii SD-310” (J Nat Prod, 2016).

The structures appear in SMILES notation. In brackets after ≈: the same amount, converted by molar mass.

Data set [1] relates to Edwardsiella tarda. The data set can be described thus: Antimicrobial activity against Edwardsiella tarda QDIO-2 measured after 24 hrs by XTT assay. In kind it is functional. The conditions noted are these: QDIO-2, 24 h.
The test system of data set [2] is Micrococcus luteus. The data set can be described thus: Antimicrobial activity against Micrococcus luteus QDIO-3 measured after 24 hrs by XTT assay. In kind it is functional. The conditions noted are these: QDIO-3, 24 h.
Data set [3] deals with Escherichia coli. Description: Antimicrobial activity against Escherichia coli EMBLC-1 measured after 24 hrs by XTT assay. In kind it is functional. The conditions noted are these: EMBLC-1, 24 h.
The subject of data set [4] is Staphylococcus aureus. Description: Antimicrobial activity against Staphylococcus aureus EMBLC-2 measured after 24 hrs by XTT assay. The format is functional. The conditions noted are these: EMBLC-2, 24 h.
In data set [5] the test system is Aeromonas hydrophila. The data set can be described thus: Antimicrobial activity against Aeromonas hydrophila QDIO-1 measured after 24 hrs by XTT assay. Conditions: QDIO-1, 24 h. In kind it is functional.
The test system of data set [6] is Pseudomonas aeruginosa. The data set can be described thus: Antimicrobial activity against Pseudomonas aeruginosa QDIO-4 measured after 24 hrs by XTT assay. The format is functional. Conditions: QDIO-4, 24 h.
The subject of data set [7] is Vibrio anguillarum. Description: Antimicrobial activity against Vibrio anguillarum QDIO-6 measured after 24 hrs by XTT assay. In kind it is functional. Conditions: QDIO-6, 24 h.
The test system of data set [8] is Vibrio harveyi. The data set can be described thus: Antimicrobial activity against Vibrio harveyi QDIO-7 measured after 24 hrs by XTT assay. In kind it is functional. The conditions noted are these: QDIO-7, 24 h.
Data set [9] deals with Vibrio parahaemolyticus. Description: Antimicrobial activity against Vibrio parahaemolyticus QDIO-8 measured after 24 hrs by XTT assay. The format is functional. The conditions noted are these: QDIO-8, 24 h.
Data set [10] relates to Alternaria brassicae. The data set can be described thus: Antimicrobial activity against Alternaria brassicae QDAU-1 measured after 24 hrs by XTT assay. In kind it is functional. Conditions: QDAU-1, 24 h.
In data set [11] the test system is Colletotrichum gloeosporioides. Description: Antimicrobial activity against Colletotrichum gloeosporioides QDAU-2 by XTT assay. The format is functional.
Data set [12] has as its system Fusarium graminearum. The data set can be described thus: Antimicrobial activity against Fusarium graminearum QDAU-4 measured after 24 hrs by XTT assay. In kind it is functional. Conditions: QDAU-4, 24 h.
Data set [13] deals with Gaeumannomyces graminis. The data set can be described thus: Antimicrobial activity against Gaeumannomyces graminis QDAU-3 measured after 24 hrs. In kind it is functional. Conditions: QDAU-3, 24 h.
Data set [14] in a line: Toxicity in brine shrimp larvae assessed as lethality measured after 24 hrs by macroscopic analysis. The conditions noted are these: artemia salina; read-out: LD50.

For `C=C[C@@]1(C)CCc2c3c(cc(O)c2[C@@H]1O)C(C)(C)[C@H](O)CC3`, the MIC is greater than 32 µg/mL in data set [1]; 16 µg/mL (≈ 52.9 µM) in data set [2]; 32 µg/mL (≈ 106 µM) in data set [3]; greater than 32 µg/mL in [4]; greater than 32 µg/mL in [5]; 4 µg/mL (≈ 13.2 µM) in data set [6]. In addition, the MIC in [7] is 32 µg/mL (≈ 106 µM); in data set [8] it was greater than 32 µg/mL; in data set [9], 32 µg/mL (≈ 106 µM); in [10], 32 µg/mL (≈ 106 µM); in data set [11] it was 32 µg/mL (≈ 106 µM); in data set [12] it was 4 µg/mL (≈ 13.2 µM). The compound further returned an MIC in data set [13] of 32 µg/mL (≈ 106 µM). For the same compound, the LC50 at 24 h in data set [14] was greater than 10 µg/mL.
For `C=C[C@]1(C)C=C2C(=O)C=C3C(C)(C)CC[C@@H](O)[C@]3(O)[C@H]2CC1`, the minimal inhibitory concentration (MIC) in [1] was greater than 32 µg/mL; in data set [2], 16 µg/mL (≈ 52.9 µM); in [3], greater than 32 µg/mL; in [4], greater than 32 µg/mL; in data set [5], greater than 32 µg/mL; in data set [6], greater than 32 µg/mL. The minimal inhibitory concentration (MIC) in data set [7] is greater than 32 µg/mL; in data set [8], greater than 32 µg/mL; in data set [9], 32 µg/mL (≈ 106 µM); in [10], 32 µg/mL (≈ 106 µM); in data set [11], greater than 32 µg/mL; in [12], greater than 32 µg/mL. Besides, in [13], the MIC is greater than 32 µg/mL. Moreover, the LC50 at 24 h in data set [14] is greater than 10 µg/mL.
With `C=C[C@@]1(C)CCc2c(c(O)cc3c2CCCC3(C)C)C1`, the MIC is 16 µg/mL (≈ 59.2 µM) in data set [1]; greater than 32 µg/mL in data set [2]; greater than 32 µg/mL in data set [3]; 8 µg/mL (≈ 29.6 µM) in data set [4]; greater than 32 µg/mL in data set [5]; greater than 32 µg/mL in [6]. Moreover, the minimal inhibitory concentration (MIC) was greater than 32 µg/mL in data set [7]; greater than 32 µg/mL in data set [8]; 4 µg/mL (≈ 14.8 µM) in data set [9]; greater than 32 µg/mL in data set [10]; greater than 32 µg/mL in data set [11]; greater than 32 µg/mL in [12]. The compound also registered an MIC in data set [13] of 8 µg/mL (≈ 29.6 µM). In addition, the LC50 at 24 h in data set [14] was greater than 10 µg/mL.
Turning to `C=C[C@]1(C)C=C2C(=O)C=C3C(C)(C)CCC[C@]3(O)[C@@]2(O)CC1`, the MIC in data set [1] is greater than 32 µg/mL; in data set [2] it was 4 µg/mL (≈ 13.2 µM); in data set [3] it was 32 µg/mL (≈ 106 µM); in data set [4], greater than 32 µg/mL; in data set [5] it was greater than 32 µg/mL; in [6], 32 µg/mL (≈ 106 µM). For the same compound, the minimal inhibitory concentration (MIC) was greater than 32 µg/mL in [7]; greater than 32 µg/mL in data set [8]; greater than 32 µg/mL in data set [9]; 8 µg/mL (≈ 26.5 µM) in data set [10]; greater than 32 µg/mL in data set [11]; 2 µg/mL (≈ 6.61 µM) in [12]. This compound also came in with an MIC in [13] of 32 µg/mL (≈ 106 µM). Besides, in data set [14], the LC50 at 24 h was greater than 10 µg/mL.
On to `C=C[C@]1(C)C=C2C(=O)C=C3C(C)(C)[C@H](O)CC[C@]3(O)[C@H]2CC1`, for which the minimal inhibitory concentration (MIC) in [1] is 4 µg/mL (≈ 13.2 µM); in [2], greater than 32 µg/mL; in data set [3], greater than 32 µg/mL; in [4], 32 µg/mL (≈ 106 µM); in data set [5] it was 16 µg/mL (≈ 52.9 µM); in data set [6], greater than 32 µg/mL. Further, the minimum inhibitory concentration (MIC) is 32 µg/mL (≈ 106 µM) in [7]; 8 µg/mL (≈ 26.5 µM) in [8]; 32 µg/mL (≈ 106 µM) in [9]; greater than 32 µg/mL in data set [10]; greater than 32 µg/mL in [11]; greater than 32 µg/mL in [12]. The minimal inhibitory concentration (MIC) in data set [13] is greater than 32 µg/mL. Further, the LC50 at 24 h in data set [14] was greater than 10 µg/mL.
On to `C=C[C@@]1(C)CCc2c3c(cc(O)c2[C@H]1O)C(C)(C)[C@H](O)CC3`, for which the minimal inhibitory concentration (MIC) in [1] is greater than 32 µg/mL; in data set [2], greater than 32 µg/mL; in [3] it was 16 µg/mL (≈ 52.9 µM); in [4], 32 µg/mL (≈ 106 µM); in [5], greater than 32 µg/mL; in data set [6] it was greater than 32 µg/mL. The MIC in [7] is greater than 32 µg/mL; in [8] it was 4 µg/mL (≈ 13.2 µM); in [9] it was greater than 32 µg/mL; in data set [10], greater than 32 µg/mL; in [11] it was 32 µg/mL (≈ 106 µM); in [12], greater than 32 µg/mL. In [13], the MIC was found to be 32 µg/mL (≈ 106 µM). Also, in data set [14], the LC50 at 24 h is greater than 10 µg/mL.
Regarding `C[C@@H]1[C@H](O)[C@@H](C)/C=C/C=C/C=C/C=C/C=C/C=C/C=C/[C@H](O[C@@H]2O[C@H](C)[C@@H](O)[C@H](N)[C@@H]2O)C[C@@H]2O[C@](O)(C[C@@H](O)C[C@@H](O)[C@H](O)CC[C@@H](O)C[C@@H](O)CC(=O)O[C@H]1C)C[C@H](O)[C@H]2C(=O)O` [AMPHOTERICIN B], the minimal inhibitory concentration (MIC) is 32 µg/mL (≈ 34.6 µM) in data set [10], 32 µg/mL (≈ 34.6 µM) in data set [11], 8 µg/mL (≈ 8.66 µM) in [12] and 64 µg/mL (≈ 69.3 µM) in [13].
With `O=C(N[C@H](CO)[C@H](O)c1ccc([N+](=O)[O-])cc1)C(Cl)Cl` [CHLORAMPHENICOL], the MIC worked out at 8 µg/mL (≈ 24.8 µM) in data set [1]; 8 µg/mL (≈ 24.8 µM) in data set [2]; 4 µg/mL (≈ 12.4 µM) in data set [3]; 0.5 µg/mL (≈ 1.55 µM) in data set [4]; 4 µg/mL (≈ 12.4 µM) in data set [5]; 4 µg/mL (≈ 12.4 µM) in data set [6]. Also, the results for the MIC in data set [7], in data set [8] and in [9] were 0.5 µg/mL (≈ 1.55 µM), 4 µg/mL (≈ 12.4 µM) and 1 µg/mL (≈ 3.09 µM), respectively.
